This note sets out measurements from article PMC2678901 (Drug metabolism and disposition: the biological fate of …, 2008).

Each structure is given as a SMILES string.

The subject of the series is CYP3A. The note with it: 5 μM inhibitor; liver microsomes of RIF-pretreated TgCYP3A4/hPXR mice; 50 μM MDZ. (In general: Liver microsomes are vesicles of endoplasmic reticulum, rich in cytochrome P450 enzymes.)

On to `CC(=O)N1CCN(c2ccc(OCC3COC(Cn4ccnc4)(c4ccc(Cl)cc4Cl)O3)cc2)CC1` (stereo not shown) [ketoconazole], for which the “Inhibition of CYP3A activity” value is given as “markedly inhibited”.
